Test results reported in the METLIN SMRT retention time set (Domingo-Almenara et al. 2019).

Experiment: gradient 5% acetonitrile 3 min, to 50% in 2 min, to 85% in 15 min, held 3 min, 100 µL/min
Conditions: column: Zorbax Extend-C18 2.1 x 50 mm; eluents: water / acetonitrile, 0.1% formic acid
Summary of the method: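 Standards, all pure, were combined into mixtures of ~100 molecules and run at 100 μL/min on a Zorbax Extend-C18 column (2.1 × 50 mm, 1.8 μm) with water and acetonitrile, each containing 0.1% formic acid. A coupled quadrupole time-of-flight mass spectrometer operated in positive and negative ionization mode. Retention time values come from computationally picked adduct peaks, each inspected manually.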

Row | RP-LC retention time [s] | Structure (SMILES)
1 | 738 | Cn1cnc2ccc(-c3noc(Cc4ccccc4Cl)n3)cc21
2 | 918 | CCN1C(=O)c2cccnc2Sc2cc(NC(=O)c3cc(C)cc(C)c3)ccc21
3 | 669 | CC(=O)Nc1ccc2c(c1)Sc1ncccc1C(=O)N2C(C)C
4 | 1150 | CCCn1nc(-c2nc(-c3cccc(Cl)c3)no2)ccc1=O
5 | 963 | CCCn1cc(CCNC(=O)Nc2cc(Cl)ccc2Cl)c2cccnc21
6 | 751 | CCOc1ccccc1CNC(=O)C1CCN(Cc2cn(C)c3ccc(Cl)cc23)CC1
7 | 921 | O=c1n(Cc2ccc3c(c2)OCO3)nc2c(S(=O)(=O)N3CCCCCC3)cccn12
8 | 742 | O=C(Nc1ccccc1F)C1CCN(S(=O)(=O)c2cc(C(=O)N3CCOCC3)cs2)CC1
9 | 754 | CN(C)c1ccc(CNC(=O)c2nnc(-c3ccc(S(=O)(=O)N4CCCCC4)cc3)o2)cc1
10 | 642 | Cc1nc(N)nc(N)c1-c1ccc(Cl)c(Cl)c1
11 | 927 | CN(C)c1cccc(C(=O)Nc2cc(-c3ccsc3)no2)c1
12 | 1120 | Cc1cc(C)c(S(=O)(=O)N2CCC(n3cnc4c(C)cccc4c3=O)CC2)cc1C
13 | 1000 | O=c1ccn(-c2cccc(F)c2)nc1-c1nc(-c2ccc(Br)cc2)no1
14 | 681 | CC(C)(CO)NC(=O)Cc1ccc(NC(=O)CSc2ccc(F)cc2)cc1
15 | 634 | Cc1ccc2c(Nc3ccc(Cl)cc3)c(C(=O)N3CCSCC3)cnc2n1
16 | 673 | COc1ccc2cc(C(=O)N3CCN(c4cc(=O)n(C)c(=O)n4C)CC3)[nH]c2c1
17 | 631 | O=C(N1CCC(c2nnc(-c3ccc(F)cc3)o2)CC1)C1(c2ccccc2)CCOCC1
18 | 1310 | CCOc1ccc(-c2csc(Cc3nc(-c4ccccc4C)no3)n2)cc1
19 | 815 | COc1ccc(CNC(=O)C2CN(S(=O)(=O)C3CC3)CC23CCCCC3)c(OC)c1 (stereo not drawn)
20 | 603 | COCCCN(CC(=O)N1CCNCC1)C(=O)c1ccc(Br)cc1
21 | 769 | Cn1cc2c(n1)c(=O)n(Cc1ccccc1)c(=O)n2CC(=O)NCc1ccccc1
22 | 746 | O=C(Cc1nnc(-c2cccc(F)c2)o1)NC1CCCC1

Row | RP-LC retention time [s] | Structure (SMILES)
23 | 690 | CN(C)C(=O)Cn1c(=O)c2cccn2c2ccc(F)cc21
24 | 795 | COc1cc(Cl)ccc1C(=O)N1CCN(c2cc(-c3cccs3)[nH]n2)CC1
25 | 631 | CC(C)(C)Cn1c(N)nc2ccc(-c3[nH]c(C(C)(C)C)nc3-c3ccc(F)cc3)nc21
26 | 567 | Cc1[nH]c2ccccc2c1C(=O)CSc1n[nH]c(N)n1
27 | 683 | CCCCNC(=O)C1CCN(c2nc(NC(C)=O)c(C(=O)N3CCCC3)s2)CC1
28 | 821 | CCCN(CC1CCOC1)C(=O)Nc1ccccc1OC (stereo not drawn)
29 | 705 | COC(=O)c1cnc2nc(C)ccc2c1Nc1cccc(Cl)c1
30 | 643 | Cc1ccnc(NC(=O)NCCCSc2nccc(C)n2)n1
31 | 633 | CCC(=O)N1CCN(c2nc3c(s2)CC(C(=O)Nc2cc(F)ccc2F)CC3)CC1 (stereo not drawn)
32 | 1060 | COCCn1cc2c3c(cccc31)CN(C(=O)c1ccc(Cl)s1)CC2
33 | 620 | O=c1c(-c2ccccc2)c(N2CCN(c3ccccn3)CC2)c1=O
34 | 703 | CN(C)C(=O)c1ccc2c(c1)nnn2CCNC(=O)Nc1ccc(Br)cc1F
35 | 998 | Cc1nc(Nc2ccccc2)sc1C(=O)Nc1cccc(F)c1
36 | 632 | Cn1cc(-c2ccncc2)cc1C(=O)N1CCN(c2ccc(F)cc2)CC1
37 | 717 | Cc1cc(N2CCN(S(=O)(=O)c3cc(F)ccc3F)CC2)nc(N2CCCC2)n1
38 | 683 | O=C(Cc1ccccc1F)N1C[C@H]2CNC(=O)[C@]23CCCC[C@@H]13
39 | 702 | COCCNc1c(-c2ccc(F)cc2)nc2sc(C(=O)N(C)C)c(C)n12
40 | 772 | COc1ccc(OC)c(NC(=O)Cc2csc3nc(-c4ccc(C)c(C)c4)cn23)c1
41 | 912 | Cc1cccc(-n2c(=O)c3c(cc(C)n3C)n(CC(=O)Nc3ccc(C)cc3C)c2=O)c1
42 | 870 | COC(=O)c1ccc(NC(=O)C(=O)NCCOc2ccc(F)cc2)cc1
43 | 888 | CCCn1cc(C2=CCN(C(=O)NCc3ccc(OC)cc3)CC2)c2cccnc21
44 | 693 | Cc1ccc(NC(=O)Cn2cnc3nc(N4CCCC(C(=O)NC5CC5)C4)sc3c2=O)cc1C (stereo not drawn)

Row | RP-LC retention time [s] | Structure (SMILES)
45 | 903 | COc1ccc(OC)c(S(=O)(=O)N2CCCC(C)(C(=O)NCc3ccccc3)C2)c1 (stereo not drawn)
46 | 1240 | CC(C)Cn1c(=O)c2ccccc2n(Cc2nc(-c3ccc(Cl)cc3)no2)c1=O
47 | 961 | Cc1cccc(NC(=O)Cn2nc(N3CCSCC3)c3ccccc3c2=O)c1
48 | 867 | COc1ccc(C(=O)N2CCN(c3ccc(=O)n(-c4ccc(C(C)C)cc4)n3)CC2)cc1OC
49 | 638 | COCCN1C(=O)[C@H]2CN(Cc3ccc(Cl)c(F)c3)C[C@H]2C1=O
50 | 913 | CCS(=O)(=O)N1CC(=O)N(c2cccc(Cl)c2C)C(C)(C(=O)NCc2ccc(F)cc2)C1 (stereo not drawn)
51 | 825 | CCCn1nc(CNC(=O)c2ccsc2)c2ccccc21
52 | 874 | Cc1noc(C)c1-c1ccc(S(=O)(=O)Nc2cccc(C#N)c2)cc1
53 | 1280 | CCC(C)n1c(=O)c2ccccc2n(Cc2nc(-c3ccc(Cl)cc3)no2)c1=O (stereo not drawn)
54 | 813 | CC(C)c1c(C2CCN(C(=O)C3(c4ccccc4)CC3)CC2)noc1N
55 | 785 | CCOc1cccc(CN2CCc3nc(N4CCN(c5ccccc5)CC4)ncc3C2)c1
56 | 930 | CCCN(C(=O)C1CCCN(c2ncnc3c2nc2n3CCCCC2)C1)c1ccc(F)cc1 (stereo not drawn)
57 | 887 | Cc1ccc(S(=O)(=O)Nc2ccc3c(c2)CCC(=O)N3CC(C)C)cc1
58 | 778 | Cn1ccc2ccn(CC(=O)NCc3ccccc3Br)c(=O)c21
59 | 1130 | O=[N+]([O-])c1ccc(-c2csc(Nc3ccccc3)n2)cc1
60 | 648 | CCN(CC)CCCNc1ncnc2c1cnn2-c1cccc(Cl)c1
61 | 614 | OC(CN1CCN(c2ncccn2)CC1)c1ccc(Cl)cc1 (stereo not drawn)
62 | 788 | COc1ccc(CNC(=O)C2=Cc3cccc(OC)c3OC2)cc1OC
63 | 1140 | Cc1cccc(Sc2nccnc2N2CCCC(C(=O)NCCC(C)C)C2)c1 (stereo not drawn)
64 | 654 | Cc1nn(C)c(C)c1CNC(=O)CN1C(=O)C2CCCCN2c2ccc(C(=O)N3CCCC3)cc21 (stereo not drawn)
65 | 818 | O=c1c2cc(-c3ccccc3)nn2ccn1Cc1noc(CN2CCc3ccccc3C2)n1
66 | 889 | CN(C)c1ccc(C(=O)NC(Cc2ccccc2)c2nnc(N3CCCCC3)o2)cc1 (stereo not drawn)

Row | RP-LC retention time [s] | Structure (SMILES)
67 | 926 | CC(C)NC(=O)Cn1c2ccccc2n2c(=O)cc(-c3cccc(Cl)c3)nc12
68 | 643 | COc1ccccc1C(=O)N1CCC(n2cnnc2-c2ccccc2)C1 (stereo not drawn)
69 | 914 | CC1CC(=O)N(CC(=O)Nc2ccc(F)cc2F)c2ccccc2S1 (stereo not drawn)
70 | 761 | Cc1cccc(NC(=O)Nc2cnn(-c3ncncc3N3CCC(C)CC3)c2)c1
71 | 857 | CCN(CC)C(=O)CN1C(=O)C2(NC(C)C3C(=O)N(Cc4ccccc4)C(=O)C32)c2ccccc21 (stereo not drawn)
72 | 906 | CCc1nnc2ccc(-c3noc(-c4ccccc4)n3)cn12
73 | 837 | COCCN1C(=O)c2cc3ccsc3n2CC1(C)C(=O)NCc1ccc(Cl)cc1 (stereo not drawn)
74 | 1250 | CC1CCN(S(=O)(=O)c2ccc(Cl)c(-c3nnc(-c4ccccc4)o3)c2)CC1
75 | 876 | COC(=O)c1ccccc1NC(=O)N1CCN(c2ccc(=O)n(-c3ccccc3)n2)CC1
76 | 903 | Cn1nc(-c2nnc(-c3ccc(F)cc3)o2)c2c1CCN(S(=O)(=O)c1ccc(F)cc1)C2
77 | 819 | COc1cccc(N2C=C(C(=O)N3CCCC3)S(=O)(=O)c3ccc(F)cc32)c1
78 | 865 | Cc1ccc(NC(=O)N2CCC(n3cnc4ccc(C)cc4c3=O)CC2)c(Cl)c1
79 | 823 | CCc1ccc(NC(=O)Cn2nc3c(N(C)C4CCCCC4)nccn3c2=O)cc1
80 | 735 | CCCNC(=O)C1CCCN(c2nc3ccsc3c(=O)n2-c2cccc(OC)c2)C1 (stereo not drawn)
81 | 589 | COc1ccc(NC(=O)N2CCN(c3cc(C)nc(N4CCOCC4)n3)CC2)c(OC)c1
82 | 564 | CNc1nc(N2CCNC(=O)C2)nc2ccccc12
83 | 609 | CC(C)NC(=O)CN1CCN(c2ncc(C(=O)Nc3ccccc3)c(N)n2)CC1
84 | 565 | O=C(C1=C(O)C(=O)N(CCCn2ccnc2)C1c1cccc([N+](=O)[O-])c1)c1cccs1 (stereo not drawn)
85 | 943 | Cc1ccc(CNC(=O)C2CCN(Cc3cc4ccccc4n3Cc3cccc(Cl)c3)CC2)o1
86 | 714 | COc1ccc(N(Cc2nnc3n2CCCCC3)C(=O)Nc2cccc(OC)c2)cc1
87 | 756 | Cc1ccc(NS(=O)(=O)c2ccc3c(c2)CCCC(=O)N3)cc1C

Row | Structure (SMILES) | RP-LC retention time [s]
88 | COc1ccc(OC)c(NC(=O)CN2CC=C(c3cnn(C)c3)CC2)c1 | 597
